Laboratory results reported in ChEMBL document CHEMBL4145553, “Design, synthesis, and biological evaluation of novel amide and hydrazide based thioether analogs targeting Histone deacteylase (HDAC) enzymes” (Eur J Med Chem, 2018).

Legend:
[1] = test system: PC-3; assay: Growth inhibition of human PC3 cells at 10 uM incubated for 48 hrs by sulforhodamine B assay relative to control; format: functional; conditions: PC-3, 48 h, values are per cent of control
[2] = test system: SK-MEL-28; assay: Growth of human SK-MEL-28 cells at 10 uM incubated for 48 hrs by sulforhodamine B assay relative to control; conditions: SK-MEL-28, 48 h
[3] = test system: MCF7; assay: Growth inhibition of human MCF7 cells at 10 uM incubated for 48 hrs by sulforhodamine B assay relative to control; format: functional; conditions: MCF7, 48 h, values are per cent of control
[4] = test system: SK-MEL-2; assay: Growth of human SK-MEL-2 cells at 10 uM incubated for 48 hrs by sulforhodamine B assay relative to control; conditions: SK-MEL-2, 48 h
[5] = test system: MDA-MB-435; assay: Growth of human MDA-MB-435 cells at 10 uM incubated for 48 hrs by sulforhodamine B assay relative to control; conditions: MDA-MB-435, 48 h
[6] = test system: NCI-H522; assay: Growth of human NCI-H522 cells at 10 uM incubated for 48 hrs by sulforhodamine B assay relative to control; conditions: NCI-H522, 48 h
[7] = test system: UACC-62; assay: Growth of human UACC62 cells at 10 uM incubated for 48 hrs by sulforhodamine B assay relative to control; conditions: UACC-62, 48 h
[8] = test system: UACC-257; assay: Growth of human UACC257 cells at 10 uM incubated for 48 hrs by sulforhodamine B assay relative to control; conditions: UACC-257, 48 h
[9] = test system: RXF 393; assay: Growth inhibition of human RXF393 cells at 10 uM incubated for 48 hrs by sulforhodamine B assay relative to control; format: functional; conditions: RXF 393, 48 h, values are per cent of control
[10] = test system: SNB-19; assay: Growth of human SNB19 cells at 10 uM incubated for 48 hrs by sulforhodamine B assay relative to control; conditions: SNB-19, 48 h
[11] = test system: SF-268; assay: Growth of human SF268 cells at 10 uM incubated for 48 hrs by sulforhodamine B assay relative to control; conditions: SF-268, 48 h
[12] = test system: DU-145; assay: Growth inhibition of human DU145 cells at 10 uM incubated for 48 hrs by sulforhodamine B assay relative to control; format: functional; conditions: DU-145, 48 h, values are per cent of control
[13] = test system: OVCAR-5; assay: Growth of human OVCAR5 cells at 10 uM incubated for 48 hrs by sulforhodamine B assay relative to control; conditions: OVCAR-5, 48 h
[14] = test system: MDA-MB-468; assay: Growth inhibition of human MDA-MB-468 cells at 10 uM incubated for 48 hrs by sulforhodamine B assay relative to control; format: functional; conditions: MDA-MB-468, 48 h, values are per cent of control
[15] = test system: A498; assay: Growth inhibition of human A498 cells at 10 uM incubated for 48 hrs by sulforhodamine B assay relative to control; format: functional; conditions: A498, 48 h, values are per cent of control
[16] = test system: NCI-H322M; assay: Growth inhibition of human NCI-H322M cells at 10 uM incubated for 48 hrs by sulforhodamine B assay relative to control; format: functional; conditions: values are per cent of control
[17] = test system: HL-60(TB); assay: Growth inhibition of human HL-60(TB) cells at 10 uM incubated for 48 hrs by sulforhodamine B assay relative to control; format: functional; conditions: HL-60, 48 h, values are per cent of control
[18] = test system: RPMI-8226; assay: Growth of human RPMI8226 cells at 10 uM incubated for 48 hrs by sulforhodamine B assay relative to control; conditions: RPMI-8226, 48 h
[19] = test system: OVCAR-8; assay: Growth of human OVCAR8 cells at 10 uM incubated for 48 hrs by sulforhodamine B assay relative to control; conditions: OVCAR-8, 48 h
[20] = test system: TK-10; assay: Growth inhibition of human TK10 cells at 10 uM incubated for 48 hrs by sulforhodamine B assay relative to control; format: functional; conditions: TK-10, 48 h, values are per cent of control
[21] = test system: U-251; assay: Growth of human U251 cells at 10 uM incubated for 48 hrs by sulforhodamine B assay relative to control; conditions: U-251, 48 h
[22] = test system: SF-295; assay: Growth of human SF295 cells at 10 uM incubated for 48 hrs by sulforhodamine B assay relative to control; conditions: SF-295, 48 h
[23] = test system: A549; assay: Growth of human A549/ATCC cells at 10 uM incubated for 48 hrs by sulforhodamine B assay relative to control; conditions: A549, 48 h
[24] = test system: M14; assay: Growth of human M14 cells at 10 uM incubated for 48 hrs by sulforhodamine B assay relative to control; conditions: M14, 48 h
[25] = test system: HOP-92; assay: Growth inhibition of human HOP92 cells at 10 uM incubated for 48 hrs by sulforhodamine B assay relative to control; format: functional; conditions: HOP-92, 48 h, values are per cent of control
[26] = test system: KM12; assay: Growth of human KM12 cells at 10 uM incubated for 48 hrs by sulforhodamine B assay relative to control; conditions: KM12, 48 h
[27] = test system: MOLT-4; assay: Growth of human MOLT4 cells at 10 uM incubated for 48 hrs by sulforhodamine B assay relative to control; conditions: MOLT-4, 48 h
[28] = test system: Malme-3M; assay: Growth of human MALME-3M cells at 10 uM incubated for 48 hrs by sulforhodamine B assay relative to control
[29] = test system: OVCAR-3; assay: Growth of human OVCAR3 cells at 10 uM incubated for 48 hrs by sulforhodamine B assay relative to control; conditions: OVCAR-3, 48 h
[30] = test system: NCI/ADR-RES; assay: Growth inhibition of human NCI/ADR-RES cells at 10 uM incubated for 48 hrs by sulforhodamine B assay relative to control; format: functional; conditions: values are per cent of control
[31] = test system: NCI-H460; assay: Growth inhibition of human NCI-H460 cells at 10 uM incubated for 48 hrs by sulforhodamine B assay relative to control; format: functional; conditions: NCI-H460, 48 h, values are per cent of control
[32] = test system: SNB-75; assay: Growth of human SNB75 cells at 10 uM incubated for 48 hrs by sulforhodamine B assay relative to control; conditions: SNB-75, 48 h
[33] = test system: HCT-15; assay: Growth of human HCT15 cells at 10 uM incubated for 48 hrs by sulforhodamine B assay relative to control; conditions: HCT-15, 48 h

CCS/C(Nc1ccccc1)=C(\C#N)C(=O)Nc1ccc(OC)cc1
growth, % of control at 10 µM [1]: 47.9% | growth, % of control at 10 µM [2]: 58.9% | growth, % of control at 10 µM [3]: 19% | growth, % of control at 10 µM [4]: -0.34% | growth, % of control at 10 µM [5]: -47.9% | growth, % of control at 10 µM [6]: 0.63% | growth, % of control at 10 µM [7]: 27.2% | growth, % of control at 10 µM [8]: 58.4% | growth, % of control at 10 µM [9]: 39.5% | growth, % of control at 10 µM [10]: 23.1% | growth, % of control at 10 µM [11]: 39.1% | growth, % of control at 10 µM [12]: 33.8% | growth, % of control at 10 µM [13]: 63.1% | growth, % of control at 10 µM [14]: -2.63% | growth, % of control at 10 µM [15]: 22.7% | growth, % of control at 10 µM [16]: 51.6% | growth, % of control at 10 µM [17]: -15.6% | growth, % of control at 10 µM [18]: 25.2% | growth, % of control at 10 µM [19]: 31.2% | growth, % of control at 10 µM [20]: 47.6% | growth, % of control at 10 µM [21]: 16.6% | growth, % of control at 10 µM [22]: 32.6% | growth, % of control at 10 µM [23]: 34.6% | growth, % of control at 10 µM [24]: 15.2% | growth, % of control at 10 µM [25]: 44.5% | growth, % of control at 10 µM [26]: 31% | growth, % of control at 10 µM [27]: 10.1% | growth, % of control at 10 µM [28]: 55.5% | growth, % of control at 10 µM [29]: -12.1% | growth, % of control at 10 µM [30]: -0.67% | growth, % of control at 10 µM [31]: 10.1% | growth, % of control at 10 µM [32]: 18.2% | growth, % of control at 10 µM [33]: 16.9%

CC(C)(C)S/C(Nc1ccccc1)=C(\C#N)C(=O)N/N=C\c1ccc(Cl)cc1Cl
growth, % of control at 10 µM [1]: 96.3% | growth, % of control at 10 µM [2]: 108% | growth, % of control at 10 µM [3]: 92.7% | growth, % of control at 10 µM [4]: 91.6% | growth, % of control at 10 µM [5]: 104% | growth, % of control at 10 µM [6]: 82.7% | growth, % of control at 10 µM [7]: 89.9% | growth, % of control at 10 µM [8]: 92.5% | growth, % of control at 10 µM [9]: 103% | growth, % of control at 10 µM [10]: 97.5% | growth, % of control at 10 µM [11]: 99.7% | growth, % of control at 10 µM [12]: 113% | growth, % of control at 10 µM [13]: 106% | growth, % of control at 10 µM [14]: 98.9% | growth, % of control at 10 µM [15]: 101% | growth, % of control at 10 µM [16]: 99.8% | growth, % of control at 10 µM [17]: 89.2% | growth, % of control at 10 µM [18]: 98.7% | growth, % of control at 10 µM [19]: 97.3% | growth, % of control at 10 µM [20]: 99.1% | growth, % of control at 10 µM [21]: 98.6% | growth, % of control at 10 µM [22]: 97.9% | growth, % of control at 10 µM [23]: 98.1% | growth, % of control at 10 µM [24]: 98.5% | growth, % of control at 10 µM [25]: 94.1% | growth, % of control at 10 µM [26]: 102% | growth, % of control at 10 µM [27]: 86.2% | growth, % of control at 10 µM [28]: 94.2% | growth, % of control at 10 µM [29]: 98.6% | growth, % of control at 10 µM [30]: 96% | growth, % of control at 10 µM [31]: 101% | growth, % of control at 10 µM [32]: 102% | growth, % of control at 10 µM [33]: 102%

CC(C)(C)S/C(Nc1ccccc1)=C(\C#N)C(=O)Nc1ccccc1
growth, % of control at 10 µM [1]: 95.2% | growth, % of control at 10 µM [2]: 105% | growth, % of control at 10 µM [3]: 100% | growth, % of control at 10 µM [4]: 94% | growth, % of control at 10 µM [5]: 104% | growth, % of control at 10 µM [6]: 80.3% | growth, % of control at 10 µM [7]: 94.9% | growth, % of control at 10 µM [8]: 92.9% | growth, % of control at 10 µM [9]: 101% | growth, % of control at 10 µM [10]: 92.5% | growth, % of control at 10 µM [11]: 86.3% | growth, % of control at 10 µM [12]: 107% | growth, % of control at 10 µM [13]: 100% | growth, % of control at 10 µM [14]: 92.8% | growth, % of control at 10 µM [15]: 92.9% | growth, % of control at 10 µM [16]: 101% | growth, % of control at 10 µM [17]: 82.3% | growth, % of control at 10 µM [18]: 95.3% | growth, % of control at 10 µM [19]: 99.8% | growth, % of control at 10 µM [20]: 90.9% | growth, % of control at 10 µM [21]: 92% | growth, % of control at 10 µM [22]: 94.4% | growth, % of control at 10 µM [23]: 88.4% | growth, % of control at 10 µM [24]: 100% | growth, % of control at 10 µM [25]: 91.4% | growth, % of control at 10 µM [26]: 114% | growth, % of control at 10 µM [27]: 69.7% | growth, % of control at 10 µM [28]: 97.3% | growth, % of control at 10 µM [29]: 108% | growth, % of control at 10 µM [30]: 100% | growth, % of control at 10 µM [31]: 103% | growth, % of control at 10 µM [32]: 96.5% | growth, % of control at 10 µM [33]: 101%
